Measurements taken from the supplement of paper PMC10307832.

compound: CC(C)=CC[C@@H](O)C1=CC(=O)c2c(O)ccc(O)c2C1=O [Shikonin] + Nc1ncn([C@H]2C[C@H](O)[C@@H](CO)O2)c(=O)n1 [Decitabine] (partner 2 µM); assay: relative viability (nuclei count vs DMSO), 5 days (fraction); higher = more cells survive; conditions: first compound 0.01 µM
Outline: (§1)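 Five library-drug doses in √10 steps were combined with a fixed anchor-drug dose, or a single drug was given alone, by pin tool to lung cancer cell lines in 1536-well plates the day after seeding. Nuclei were stained and counted after 5 days. Relative viability is the nuclei count in treated wells over that in vehicle wells, taken as the median of duplicate plates.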

Cell Line | relative viability
NCI-H2347 | 0.646
NCI-H661 | 0.51
NCI-H1651 | 0.621
EPLC-272H | 0.344
NCI-H23 | 0.335
NCI-H1792 | 0.567
NCI-H1355 | 0.339
NCI-H322M | 0.736
NCI-H1437 | 0.607
NCI-H1755 | 0.735
NCI-H2085 | 0.528
HCC-15 | 0.575
RERF-LC-KJ | 0.782
EKVX | 0.295
LC-2-ad | 0.75
NCI-H1975 | 0.377
SW 1573 | 0.446
NCI-H727 | 0.893
SK-LU-1 | 0.631

same assay, conditions: first compound 0.1 µM

Cell Line | relative viability
HCC-78 | 0.638
NCI-H441 | 0.26
LCLC-97TM1 | 0.232
NCI-H2023 | 0.251
A-427 | 0.578
NCI-H460 | 0.685
NCI-H838 | 0.413
NCI-H1734 | 0.566
NCI-H596 | 1.03
NCI-H2405 | 0.889
201T | 0.919
NCI-H1915 | 0.286
HCC-827 | 0.29
LXF-289 | 0.342
NCI-H2347 | 0.623
NCI-H661 | 0.552
NCI-H1651 | 0.656

Cell Line | relative viability
EPLC-272H | 0.387
NCI-H23 | 0.306
NCI-H1792 | 0.553
NCI-H1355 | 0.4
NCI-H322M | 0.723
NCI-H1437 | 0.594
NCI-H1755 | 0.768
NCI-H2085 | 0.515
HCC-15 | 0.848
RERF-LC-KJ | 0.703
EKVX | 0.367
LC-2-ad | 0.849
NCI-H1975 | 0.392
SW 1573 | 0.686
NCI-H727 | 1.02
SK-LU-1 | 0.688

same assay, conditions: first compound 0.3162 µM

Cell Line | relative viability
HCC-78 | 0.721
NCI-H441 | 0.258
LCLC-97TM1 | 0.215
NCI-H2023 | 0.236
A-427 | 0.579
NCI-H460 | 0.504
NCI-H838 | 0.442
NCI-H1734 | 0.571
NCI-H596 | 0.981
NCI-H2405 | 0.762
201T | 0.879
NCI-H1915 | 0.268
HCC-827 | 0.33
LXF-289 | 0.453
NCI-H2347 | 0.659
NCI-H661 | 0.572
NCI-H1651 | 0.66

Cell Line | relative viability
EPLC-272H | 0.371
NCI-H23 | 0.333
NCI-H1792 | 0.644
NCI-H1355 | 0.38
NCI-H322M | 0.714
NCI-H1437 | 0.524
NCI-H1755 | 0.761
NCI-H2085 | 0.57
HCC-15 | 0.638
RERF-LC-KJ | 0.636
EKVX | 0.312
LC-2-ad | 0.874
NCI-H1975 | 0.36
SW 1573 | 0.261
NCI-H727 | 0.927
SK-LU-1 | 0.59

same assay, conditions: first compound 1 µM

Cell Line | relative viability
HCC-78 | 0.732
NCI-H441 | 0.206
LCLC-97TM1 | 0.242
NCI-H2023 | 0.225
A-427 | 0.61
NCI-H460 | 0.516
NCI-H838 | 0.468
NCI-H1734 | 0.474
NCI-H596 | 1.25
NCI-H2405 | 0.702
201T | 0.867
NCI-H1915 | 0.258
HCC-827 | 0.329
LXF-289 | 0.378
NCI-H2347 | 0.597
NCI-H661 | 0.529
NCI-H1651 | 0.641

Cell Line | relative viability
EPLC-272H | 0.358
NCI-H23 | 0.277
NCI-H1792 | 0.681
NCI-H1355 | 0.337
NCI-H322M | 0.664
NCI-H1437 | 0.536
NCI-H1755 | 0.712
NCI-H2085 | 0.532
HCC-15 | 0.792
RERF-LC-KJ | 0.653
EKVX | 0.584
LC-2-ad | 0.89
NCI-H1975 | 0.381
SW 1573 | 0.135
NCI-H727 | 0.883
SK-LU-1 | 0.635

compound: CC(C)N(CCCNC(=O)Nc1ccc(C(C)(C)C)cc1)C[C@H]1O[C@@H](n2ccc3c(N)ncnc32)[C@H](O)[C@@H]1O + C[C@@H](Oc1cc(-c2cnn(C3CCNCC3)c2)cnc1N)c1c(Cl)ccc(F)c1Cl [Crizotinib] (partner 1 µM); assay: as above; conditions: first compound 0.08 µM
Outline: as §1

Cell Line | relative viability
HCC-78 | 0.312
NCI-H441 | 0.815
LCLC-97TM1 | 0.405
NCI-H2023 | 0.753
A-427 | 0.908
NCI-H460 | 0.827
NCI-H838 | 0.796
NCI-H1734 | 0.644
NCI-H596 | 0.934
NCI-H2405 | 0.875
201T | 1.01
NCI-H1915 | 0.937
HCC-827 | 0.883
LXF-289 | 0.781
NCI-H2347 | 0.752
NCI-H661 | 1.05
NCI-H1651 | 0.838
EPLC-272H | 0.944
NCI-H23 | 0.487
NCI-H1792 | 0.975
NCI-H1355 | 1.01
